Reference: the RepoRT retention time repository

Experiment: A: acetonitrile + 0.1% formic acid + 10 mM ammonium formate; B: 5% water + 95% acetonitrile + 0.1% formic acid + 10 mM ammonium formate; gradient (min/%B) 0/10 2/10 22/100 27/100 27.1/10
Details: stereoisomer not certain

Structure (SMILES)	LC retention time [min]
Nc1nc2c(ncn2C2CC(O)C(COP(=O)(O)O)O2)c(=O)[nH]1 (stereo not drawn) [2'-Deoxyguanosine 5'-monophosphate]	7.1
Nc1nc2c(ncn2C2CC(O)C(CO)O2)c(=O)[nH]1 (stereo not drawn) [2'-Deoxyguanosine]	4.06
O=c1ccn(C2CC(O)C(CO)O2)c(=O)[nH]1 (stereo not drawn) [2'-Deoxyuridine]	1.23
CC1=CC(=O)C(C)O1 (stereo not drawn) [2,5-Dimethyl-2,3-dihydrofuran-3-one]	0.451
NC(CCCC(N)C(=O)O)C(=O)O (stereo not drawn) [2,6-Diaminopimelic Acid]	8.06
COc1cccc(OC)c1C(=O)O [2,6-Dimethoxybenzoic acid]	0.628
CC(=O)c1cnccn1 [2-Acetylpyrazine]	0.441
NCC(O)c1ccccc1 (stereo not drawn) [2-Amino-1-phenylethanol]	2.92
CC(C)(N)C(=O)O [2-Aminoisobutyric acid]	5.89
CCCCCCC(N)C(=O)O (stereo not drawn) [2-Aminooctanoic acid]	4.11
CCc1occc(=O)c1O [2-Ethyl-3-hydroxy-4H-pyran-4-one]	0.586
O=C(O)CNC(=O)c1ccccc1O [2-Hydroxy Hippuric Acid]	1.14
COc1ccccc1C=CC=O [2-Methoxycinnamaldehyde]	0.436
CCC(C)C(=O)NCC(=O)O (stereo not drawn) [2-Methylbutyrylglycine]	1.55
Cc1ccccc1C(=O)NCC(=O)O [2-Methylhippuric acid]	3.28
O=C(O)c1ccccn1 [2-Picolinic acid]	3.08
O=C(O)CNC(=O)c1ccc(O)cc1 [2-[(4-Hydroxyphenyl)formamido]acetic acid]	3.64
NC(Cc1cc(I)c(Oc2ccc(O)c(I)c2)c(I)c1)C(=O)O (stereo not drawn) [3,3',5-Triiodo-l-thyronine]	3.5
COc1cc(C=CC(=O)O)cc(OC)c1OC [3,4,5-Trimethoxycinnamic acid]	0.47
O=Cc1ccc(O)c(O)c1 [3,4-Dihydroxybenzaldehyde]	0.571
COc1ccc(CC(=O)O)cc1OC [3,4-Dimethoxyphenylacetic acid]	0.554
N[C@@H](Cc1cc(I)c(Oc2ccc(O)cc2)c(I)c1)C(=O)O [3,5-Diiodo-L-Thyronine]	3.63
COc1cc(O)cc(OC)c1 [3,5-Dimethoxyphenol]	0.433

Structure (SMILES)	LC retention time [min]
CC(CN)C(=O)O (stereo not drawn) [3-Aminoisobutanoic acid]	5.88
Cc1occc(=O)c1O [3-Hydroxy-2-methyl-4-pyrone]	0.613
O=C(O)CCc1c[nH]c2ccccc12 [3-Indolepropionic acid]	0.467
COc1cc(CCN)ccc1O [3-Methoxytyramine]	2.92
Cn1cncc1C[C@H](N)C(=O)O [3-Methyl-L-histidine]	7.74
Cn1cnc(=N)c2[nH]cnc21 [3-Methyladenine]	2.75
Cc1c[nH]c2ccccc12 [3-Methylindole]	0.412
Cn1c(=O)[nH]c(=O)c2[nH]cnc21 [3-Methylxanthine]	1.15
N[C@@H](Cc1ccc(O)c([N+](=O)[O-])c1)C(=O)O [3-Nitro-L- tyrosine]	4.76
NC(=O)NCCC(=O)O [3-Ureidopropionic acid]	4.57
Nc1ccc(S(=O)(=O)c2ccc(N)cc2)cc1 [4,4'-Diaminodiphenyl sulfone]	0.441
CC(=O)CC(=O)CCC(=O)O [4,6-Dioxoheptanoic acid]	0.575
CC(=O)NCCCC(=O)O [4-(Acetylamino)butanoic acid]	1.23
CC(=O)Nc1ccc(O)cc1 [4-Acetamidophenol]	0.477
Nc1ccc(O)cc1 [4-Aminophenol]	0.517
Nc1ccc(C(=O)O)c(O)c1 [4-Aminosalicylic Acid]	0.675
NC(N)=NCCCC(=O)O [4-Guanidinobutyric acid]	5.73
COc1cc(CC(=O)O)ccc1O [4-Hydroxy-3-methoxyphenylacetic Acid]	0.535
O=Cc1ccc(O)cc1 [4-Hydroxybenzaldehyde]	3.98
Cc1ncc(CO)c(C(=O)O)c1O [4-Pyridoxic acid]	0.875
CC1CNC(=O)NC1=O (stereo not drawn) [5,6-Dihydro Thymine]	0.621
Cc1cc2nc[nH]c2cc1C [5,6-Dimethylbenzimidazole]	0.733
NC(=O)c1ncn(C2OC(CO)C(O)C2O)c1N [5-Aminoimidazole-4-carboxamide-1-beta-D-ribofuranoside]	3.02

Structure (SMILES)	LC retention time [min]
NCC(=O)CCC(=O)O [5-Aminolevulinic acid]	5.89
Nc1ccc(O)c(C(=O)O)c1 [5-Aminosalicylic acid]	1.82
NCCCCC(=O)O [5-Aminovaleric acid]	5.83
O=C(O)Cc1c[nH]c2ccc(O)cc12 [5-Hydroxyindole-3-acetic acid]	0.651
COc1ccc2[nH]cc(CCN)c2c1 [5-Methoxytryptamine]	2.21
Cc1cnc(=O)[nH]c1N [5-Methylcytosine]	3.15
Cc1cn(C2OC(CO)C(O)C2O)c(=O)[nH]c1=O (stereo not drawn) [5-Methyluridine]	1.78
O=C(O)c1ccc(=O)[nH]c1 [6-Hydroxynicotinic acid]	5.17
Cn1c[n+](C2OC(CO)C(O)C2O)c2nc(N)nc([O-])c21 (stereo not drawn) [7-Methylguanosine]	5.34
Cn1cnc2[nH]c(=O)[nH]c(=O)c21 [7-Methylxanthine]	1.37
CC(=O)C1=CCC2C3CCC4=CC(=O)CCC4(C)C3CCC12C (stereo not drawn) [16-Dehydroprogesterone]	0.423
CC(=O)C1(O)CCC2C3CCC4=CC(=O)CCC4(C)C3CCC21C (stereo not drawn) [17-alpha-Hydroxyprogesterone]	0.437
CS(=N)(=O)CC[C@H](N)C(=O)O (stereo partly drawn) [(2S)-2-Amino-4-(S-methylsulfonimidoyl)butanoic acid]	6.69
NC[C@@H](O)CC(=O)O [(S)-(+)-4-Amino-3-hydroxybutyric acid]	6.5
CN1C(=O)CCC1c1cccnc1 [(S)-Cotinine]	0.622
CC1OC(OC2C(CO)OC(OC3C(CO)OC(O)C(O)C3O)C(O)C2O)C(O)C(O)C1NC1C=C(CO)C(O)C(O)C1O (stereo not drawn) [Acarbose]	8.07
CCCC(=O)Nc1ccc(OCC(O)CNC(C)C)c(C(C)=O)c1 (stereo not drawn) [Acebutolol]	2.28
CC(=O)Nc1nnc(S(N)(=O)=O)s1 [Acetazolamide]	0.529
Nc1ncnc2nc[nH]c12 [Adenine]	2
Nc1ncnc2c1ncn2C1OC(COP(=O)(O)OP(=O)(O)O)C(O)C1O (stereo not drawn) [Adenosine 5'-diphosphate]	9.46
Nc1ncnc2c1ncn2C1OC2COP(=O)(O)OC2C1O (stereo not drawn) [Adenosine cyclophosphate]	5.66
Nc1ncnc2c1ncn2C1OC(COP(=O)(O)O)C(O)C1O (stereo not drawn) [Adenosine-5'-monophosphate]	6.76
